Experimental data from patent US20240317721A1, “PYRAZOLYL DERIVATIVES AS INHIBITORS OF THE KRAS MUTANT PROTEIN” (NOVARTIS AG, priority 2021, published 2024).

These compounds were tested against KRasG12C (M1-K169, biotinylated on the N-terminus) (Homo sapiens (Human), UniProt P01116, G12C) (assay: Covalent competition assay: scintillation proximity assay (SPA) quantifying covalent modification of KRASG12C). Details: competition with radiolabeled covalent probe (Compound B/Compound A), 2 hours incubation, 10 nM KRasG12C.
Format: binding
In short: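 Test compounds compete with a radiolabeled covalent probe for modification of N-terminally biotinylated KRasG12C(M1-K169):GDP, final 10 nM protein, 25 nM radio-ligand, 475 nM unlabelled ligand, 2 h with agitation in 20 mM Tris-HCl pH 7.5, 150 mM NaCl, 0.1 mM MgCl2, 0.01% Tween-20.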

SMILES | IC50
C=CC(=O)N1CC2(CC(n3nc(N4CCN(C[C@@H]5COCCO5)C[C@]4(C)COC)c(-c4c(Cl)c(C)cc5[nH]nc(N)c45)c3C)C2)C1 (single isomer, unassigned) [Example 118b] | 818 nM
C=CC(=O)N1CC2(CC(n3nc(N4CCC(N5CC6COCC(C5)O6)CC4(C)C)c(-c4c(Cl)c(C)cc5[nH]ncc45)c3C)C2)C1 (single isomer, unassigned) [Example 119a, 1-(6-(3-(4-(3,9-dioxa-7-azabicyclo[3.3.1]nonan-7-yl)-2,2-dimethylpiperidin-1-yl)-4-(5-chloro-6-methyl-1H-indazol-4-yl)-5-methyl-1H-pyrazol-1-yl)-2-azaspiro[3.3]heptan-2-yl)prop-2-en-1-one] | 2800 nM
C=CC(=O)N1CC2(CC(n3nc(N4CCC(N5CC6COCC(C5)O6)CC4(C)C)c(-c4c(Cl)c(C)cc5[nH]ncc45)c3C)C2)C1 (single isomer, unassigned) [Example 119b, 1-(6-(3-(4-(3,9-dioxa-7-azabicyclo[3.3.1]nonan-7-yl)-2,2-dimethylpiperidin-1-yl)-4-(5-chloro-6-methyl-1H-indazol-4-yl)-5-methyl-1H-pyrazol-1-yl)-2-azaspiro[3.3]heptan-2-yl)prop-2-en-1-one] | 36 nM
CC[C@@]1(C)CN(C[C@@H]2COCCO2)CCN1c1nn(C2CC3(C2)CN(C(=O)/C=C/COC)C3)c(C)c1-c1c(Cl)c(C)cc2[nH]ncc12 (single isomer, unassigned) [Example 120a] | > 5000 nM
CC[C@@]1(C)CN(C[C@@H]2COCCO2)CCN1c1nn(C2CC3(C2)CN(C(=O)/C=C/COC)C3)c(C)c1-c1c(Cl)c(C)cc2[nH]ncc12 (single isomer, unassigned) [Example 120b] | 140 nM
C=CC(=O)N1CC2(CC(n3nc(N4CCN(C(=O)OCCOC)CC45CCC5)c(-c4c(Cl)c(C)cc5[nH]ncc45)c3C)C2)C1 (single isomer, unassigned) [Example 122a, 2-methoxyethyl 5-(1-(2-acryloyl-2-azaspiro[3.3]heptan-6-yl)-4-(5-chloro-6-methyl-1H-indazol-4-yl)-5-methyl-1H-pyrazol-3-yl)-5,8-diazaspiro[3.5]nonane-8-carboxylate] | > 5000 nM
C=CC(=O)N1CC2(CC(n3nc(N4CCN(C(=O)OCCOC)CC45CCC5)c(-c4c(Cl)c(C)cc5[nH]ncc45)c3C)C2)C1 (single isomer, unassigned) [Example 122b, 2-methoxyethyl 5-(1-(2-acryloyl-2-azaspiro[3.3]heptan-6-yl)-4-(5-chloro-6-methyl-1H-indazol-4-yl)-5-methyl-1H-pyrazol-3-yl)-5,8-diazaspiro[3.5]nonane-8-carboxylate] | 16 nM
C=CC(=O)N1CC2(CC(n3nc(N4CCN(C(=O)COC)CC45CCC5)c(-c4c(Cl)c(C)cc5[nH]ncc45)c3C)C2)C1 (single isomer, unassigned) [Example 123a, 1-(6-(4-(5-chloro-6-methyl-1H-indazol-4-yl)-3-(8-(2-methoxyacetyl)-5,8-diazaspiro[3.5]nonan-5-yl)-5-methyl-1H-pyrazol-1-yl)-2-azaspiro[3.3]heptan-2-yl)prop-2-en-1-one] | > 5000 nM
C=CC(=O)N1CC2(CC(n3nc(N4CCN(C(=O)COC)CC45CCC5)c(-c4c(Cl)c(C)cc5[nH]ncc45)c3C)C2)C1 (single isomer, unassigned) [Example 123b, 1-(6-(4-(5-chloro-6-methyl-1H-indazol-4-yl)-3-(8-(2-methoxyacetyl)-5,8-diazaspiro[3.5]nonan-5-yl)-5-methyl-1H-pyrazol-1-yl)-2-azaspiro[3.3]heptan-2-yl)prop-2-en-1-one] | 21 nM
C=CC(=O)N1CC2(CC(n3nc(N4CCN(C(=O)[C@@H]5CCCO5)CC45CCC5)c(-c4c(Cl)c(C)cc5[nH]ncc45)c3C)C2)C1 (single isomer, unassigned) [Example 124a] | > 5000 nM
C=CC(=O)N1CC2(CC(n3nc(N4CCN(C(=O)[C@@H]5CCCO5)CC45CCC5)c(-c4c(Cl)c(C)cc5[nH]ncc45)c3C)C2)C1 (single isomer, unassigned) [Example 124b] | 20 nM
C=CC(=O)N1CC2(CC(n3nc(N4CCN(C(=O)OC)CC4(C)C)c(-c4c(Cl)c(C)cc5[nH]ncc45)c3C)C2)C1 (single isomer, unassigned) [Example 125a, methyl 4-(1-(2-acryloyl-2-azaspiro[3.3]heptan-6-yl)-4-(5-chloro-6-methyl-1H-indazol-4-yl)-5-methyl-1H-pyrazol-3-yl)-3,3-dimethylpiperazine-1-carboxylate] | 2200 nM
C=CC(=O)N1CC2(CC(n3nc(N4CCN(C(=O)OC)CC4(C)C)c(-c4c(Cl)c(C)cc5[nH]ncc45)c3C)C2)C1 (single isomer, unassigned) [Example 125b, methyl 4-(1-(2-acryloyl-2-azaspiro[3.3]heptan-6-yl)-4-(5-chloro-6-methyl-1H-indazol-4-yl)-5-methyl-1H-pyrazol-3-yl)-3,3-dimethylpiperazine-1-carboxylate] | 35 nM
C=CC(=O)N1CC2(CC(n3nc(N4CCN(S(C)(=O)=O)CC4(C)C)c(-c4c(Cl)c(C)cc5[nH]ncc45)c3C)C2)C1 (single isomer, unassigned) [Example 126a, 1-(6-(4-(5-chloro-6-methyl-1H-indazol-4-yl)-3-(2,2-dimethyl-4-(methylsulfonyl)piperazin-1-yl)-5-methyl-1H-pyrazol-1-yl)-2-azaspiro[3.3]heptan-2-yl)prop-2-en-1-one] | > 50000 nM
C=CC(=O)N1CC2(CC(n3nc(N4CCN(S(C)(=O)=O)CC4(C)C)c(-c4c(Cl)c(C)cc5[nH]ncc45)c3C)C2)C1 (single isomer, unassigned) [Example 126b, 1-(6-(4-(5-chloro-6-methyl-1H-indazol-4-yl)-3-(2,2-dimethyl-4-(methylsulfonyl)piperazin-1-yl)-5-methyl-1H-pyrazol-1-yl)-2-azaspiro[3.3]heptan-2-yl)prop-2-en-1-one] | 170 nM
C=CC(=O)N1CC2(CC(n3nc(N4CCN(C(=O)C5CC5)CC4(C)C)c(-c4c(Cl)c(C)cc5[nH]ncc45)c3C)C2)C1 (single isomer, unassigned) [Example 127a, 1-(6-(4-(5-chloro-6-methyl-1H-indazol-4-yl)-3-(4-(cyclopropanecarbonyl)-2,2-dimethylpiperazin-1-yl)-5-methyl-1H-pyrazol-1-yl)-2-azaspiro[3.3]heptan-2-yl)prop-2-en-1-one] | 25200 nM
C=CC(=O)N1CC2(CC(n3nc(N4CCN(C(=O)C5CC5)CC4(C)C)c(-c4c(Cl)c(C)cc5[nH]ncc45)c3C)C2)C1 (single isomer, unassigned) [Example 127b, 1-(6-(4-(5-chloro-6-methyl-1H-indazol-4-yl)-3-(4-(cyclopropanecarbonyl)-2,2-dimethylpiperazin-1-yl)-5-methyl-1H-pyrazol-1-yl)-2-azaspiro[3.3]heptan-2-yl)prop-2-en-1-one] | 20 nM
C=CC(=O)N1CC2(CC(n3nc(N4CCN(C(=O)C(F)F)CC4(C)C)c(-c4c(Cl)c(C)cc5[nH]ncc45)c3C)C2)C1 (single isomer, unassigned) [Example 128a, 1-(6-(4-(5-chloro-6-methyl-1H-indazol-4-yl)-3-(4-(2,2-difluoroacetyl)-2,2-dimethylpiperazin-1-yl)-5-methyl-1H-pyrazol-1-yl)-2-azaspiro[3.3]heptan-2-yl)prop-2-en-1-one] | > 50000 nM
C=CC(=O)N1CC2(CC(n3nc(N4CCN(C(=O)C(F)F)CC4(C)C)c(-c4c(Cl)c(C)cc5[nH]ncc45)c3C)C2)C1 (single isomer, unassigned) [Example 128b, 1-(6-(4-(5-chloro-6-methyl-1H-indazol-4-yl)-3-(4-(2,2-difluoroacetyl)-2,2-dimethylpiperazin-1-yl)-5-methyl-1H-pyrazol-1-yl)-2-azaspiro[3.3]heptan-2-yl)prop-2-en-1-one] | 54 nM
C=CC(=O)N1CC2(CC(n3nc(N4CCN(C(=O)N(C)C)CC4(C)C)c(-c4c(Cl)c(C)cc5[nH]ncc45)c3C)C2)C1 (single isomer, unassigned) [Example 129a, 4-(1-(2-acryloyl-2-azaspiro[3.3]heptan-6-yl)-4-(5-chloro-6-methyl-1H-indazol-4-yl)-5-methyl-1H-pyrazol-3-yl)-N,N,3,3-tetramethylpiperazine-1-carboxamide] | 32 nM
C=CC(=O)N1CC2(CC(n3nc(N4CCN(C(=O)N(C)C)CC4(C)C)c(-c4c(Cl)c(C)cc5[nH]ncc45)c3C)C2)C1 (single isomer, unassigned) [Example 129b, 4-(1-(2-acryloyl-2-azaspiro[3.3]heptan-6-yl)-4-(5-chloro-6-methyl-1H-indazol-4-yl)-5-methyl-1H-pyrazol-3-yl)-N,N,3,3-tetramethylpiperazine-1-carboxamide] | 1200 nM
C=CC(=O)N1CC2(CC(n3nc(N4CCN(C5CCOCC5)CC45CCC5)c(-c4c(Cl)c(C)cc5[nH]ncc45)c3C)C2)C1 (single isomer, unassigned) [Example 130a, 1-(6-(4-(5-Chloro-6-methyl-1H-indazol-4-yl)-5-methyl-3-(8-(tetrahydro-2H-pyran-4-yl)-5,8-diazaspiro[3.5]nonan-5-yl)-1H-pyrazol-1-yl)-2-azaspiro[3.3]heptan-2-yl)prop-2-en-1-one] | > 5000 nM
C=CC(=O)N1CC2(CC(n3nc(N4CCN(C5CCOCC5)CC45CCC5)c(-c4c(Cl)c(C)cc5[nH]ncc45)c3C)C2)C1 (single isomer, unassigned) [Example 130b, 1-(6-(4-(5-Chloro-6-methyl-1H-indazol-4-yl)-5-methyl-3-(8-(tetrahydro-2H-pyran-4-yl)-5,8-diazaspiro[3.5]nonan-5-yl)-1H-pyrazol-1-yl)-2-azaspiro[3.3]heptan-2-yl)prop-2-en-1-one] | 32 nM
